{"source": "patent US20110288033A1", "about": "“Disulfide Compounds for Phototherapy” (Mallinckrodt Inc., priority 2010, published 2011)", "key": {"[1]": {"test_system": "human myeloid leukemia U937 cell line", "format": "cell-based", "conditions": "0, 2.5, 5 and 10 μM; light 0, 10, 20 minutes", "protocol": "A general procedure is carried out for measuring cell viability upon exposure of cancer cells to a disulfide photosensitizer and light. The disulfide photosensitizer evaluated is a commercially available compound having formula (FX13): […]\nCompound (FX13) was purchased from Sigma-Aldrich (Cat #158194). […] Preparation of compound (FX13) is known and can be found, for example, in Rath, C. Derivatives of pyridine. XII. Mercaptans and sulfonic acids of pyridine. Justus Liebigs Annalen der Chemie 1931, 487, 105-119, which is hereby incorporated by reference. Some properties of compound (FX13) are known and can be found, for example, in Grassetti, D. R.; Brokke, M. E.; Murray, J. F., Jr. The effect of some sulfur-containing pyridine derivatives on the carbohydrate metabolism of ehrlich ascites tumor. J. Med. Chem. 1965, 8, 753-756, which is hereby incorporated by reference. The cell viability analysis is carried out using a human myeloid leukemia U937 cell line by the standard WST-1 assay. […]\nThe disulfide photosensitizer is dissolved in DMSO at an initial concentration of about 8 mM and diluted with water to the final desired value such that amount of DMSO exposed to the cells is kept […]. […] The viability of cells is assessed after 24 hours following light exposure. […] The number of viable cells is determined and percent viability is determined: […]"}, "UV spectrum in DMSO": {"assay": "UV spectrum in DMSO", "format": "physicochemical"}}}
{"smiles": "O=[N+]([O-])c1ccc(SSc2ccc([N+](=O)[O-])cn2)nc1", "note": "[FX13]", "values": [{"measurement": "change in cell viability with photosensitizer and light (FIG. 5)", "setting": "[1]", "value": "concentration-dependent and light exposure time-dependent decrease in cell viability"}, {"measurement": "absorption λmax", "setting": "UV spectrum in DMSO", "value": 323, "unit": "nm"}]}
